This passage reports Activity and IC50 results from ChEMBL document CHEMBL1155353, “Isatin derivatives, a novel class of transthyretin fibrillogenesis inhibitors” (Bioorg Med Chem Lett, 2009).

The target in experiment [1] is T1, Transthyretin (Homo sapiens, UniProt P02766). Put plainly: Inhibition of TTR mediated fibrillogenesis assessed as acid-induced protein aggregation turbidity at […] after 1.5 hrs by turbidimetric assay relative to control. The arrangement: scale not given: the % may be the effect or the level left.
The target of experiment [2] is T1, Transthyretin. Put plainly: Displacement of [125I]thyroxin from TTR.
The target in experiment [3] is T1, Transthyretin. Put plainly: Inhibition of TTR mediated fibrillogenesis assessed as acid-induced protein aggregation turbidity after 1.5 hrs by turbidimetric assay.
The target in experiment [4] is T1, Transthyretin. Put plainly: Inhibition of TTR mediated fibrillogenesis assessed as acid-induced protein aggregation turbidity after 1.5 hrs by turbidimetric assay relative to control. The arrangement: concentration or dose not given beside the values.
The target of experiment [5] is T1, Transthyretin. Put plainly: Binding affinity to TTR at 40 uM by isothermal titration calorimetry.

Activity calls are given as the source filed them. The calls are words filed in the database; no cut-off is given here.

As to `Cc1ccc(/N=C2\C(=O)Nc3ccccc32)cc1`, the Activity in experiment [1] came out at 14%. Further, in experiment [2], the outcome was inactive. In addition, the IC50 in experiment [3] was greater than 50 µM.
Consider `COc1ccc(/N=C2/C(=O)Nc3ccccc32)cc1`, for which the concentration for half-maximal inhibition (IC50) in experiment [3] is 8.1 µM.
Take `CN1C(=O)/C(=N\c2ccccc2)c2ccccc21`: the result in experiment [2] was inactive. For the same compound, the IC50 in experiment [3] was 11 µM. Besides, the Activity in experiment [4] was determined as 77%.
On to `CN1C(=O)/C(=N\c2ccc(I)cc2)c2ccccc21`, for which, in experiment [2], the outcome was inactive. Further, the 50% inhibitory concentration (IC50) in experiment [3] is greater than 50 µM. Moreover, in experiment [4], the Activity is 0%.
Consider `O=C1Nc2ccc(I)cc2/C1=N/c1ccccc1`, for which, in experiment [2], the outcome was inactive. In experiment [3], the 50% inhibitory concentration (IC50) is greater than 50 µM. For the same compound, the Activity in experiment [4] amounted to 1%.
On to `O=C1Nc2ccccc2/C1=N/c1ccc([N+](=O)[O-])cc1`, for which the result in experiment [2] and in experiment [5] was inactive. In addition, in experiment [3], the half-inhibitory concentration (IC50) came to 2.8 µM. Besides, the Activity in experiment [4] was determined as 90%.
As to `COc1ccc(/N=C2\C(=O)N(C)c3ccccc32)cc1`, in experiment [2], the result was inactive. The IC50 in experiment [3] amounted to 7.7 µM. In addition, the Activity in experiment [4] is 81%.
As to `COc1ccc(/N=C2\C(=O)Nc3ccccc32)cc1`, the outcome in experiment [2] was inactive. Also, the Activity in experiment [4] is 100%.
`COc1ccc(/N=C2\C(=O)Nc3ccc([N+](=O)[O-])cc32)cc1`: the result in experiment [2] was inactive. For the same compound, in experiment [3], the IC50 is greater than 50 µM. Also, the Activity in experiment [4] was determined as 24%.
In the case of `O=C1Nc2ccc(I)cc2/C1=N/c1ccc(I)cc1`, the outcome in experiment [2] was inactive. Also, the IC50 in experiment [3] was greater than 50 µM. In addition, the Activity in experiment [4] turned out to be 23%.
The corresponding values for `O=C1Nc2ccccc2/C1=N/c1ccc(I)cc1` are “inactive”, greater than 50 µM and 0%.
The corresponding values for `Cc1ccc(/N=C2\C(=O)N(C)c3ccccc32)cc1` are “inactive”, 6.3 µM and 8.6%.
For `COc1ccc(/N=C2\C(=O)Nc3ccc(C)cc32)cc1`, in that order: “inactive”, greater than 50 µM and 32%.
Take `O=C1Nc2ccccc2C1=O` [ISATIN]: the Activity in experiment [1] stood at 24%. Also, the outcome in experiment [2] was inactive. In addition, in experiment [3], the IC50 is greater than 50 µM.
Regarding `O=C1Nc2ccc([N+](=O)[O-])cc2/C1=N/c1ccc(I)cc1`, the Activity in experiment [1] and in experiment [4] was 7% throughout. Further, the outcome in experiment [2] was inactive. Moreover, the IC50 in experiment [3] was greater than 50 µM.
With `COc1ccc(/N=C2\C(=O)Nc3ccc(I)cc32)cc1`, the result in experiment [2] was inactive. For the same compound, in experiment [3], the IC50 is greater than 50 µM. The Activity in experiment [4] came to 42%.
In the case of `N[C@@H](Cc1cc(I)c(Oc2cc(I)c(O)c(I)c2)c(I)c1)C(=O)O`, in experiment [2], the outcome was inactive. The Activity in experiment [4] was determined as 95%.
Regarding `CN1C(=O)C(=O)c2ccccc21`, in experiment [2], the outcome was inactive. In addition, the IC50 in experiment [3] was found to be 6.3 µM. Besides, the Activity in experiment [4] stood at 100%.
For `Oc1c(I)cc(I)cc1I` [TRIIODOPHENOL], in that order: “inactive”, 3.2 µM and 80%.
For `O=C1Nc2ccc(Br)cc2/C1=N/c1ccc(I)cc1`, in that order: “inactive”, greater than 50 µM and 16%.
For `CN1C(=O)/C(=N\c2ccc([N+](=O)[O-])cc2)c2ccccc21`, in that order: “inactive”, 6.3 µM and 86%.
As for `COc1ccc(/N=C2\C(=O)Nc3ccc(Br)cc32)cc1`, the result in experiment [2] was inactive. In addition, the IC50 in experiment [3] is greater than 50 µM. Also, the Activity in experiment [4] stood at 48%.
Consider `Cc1ccc2c(c1)/C(=N/c1ccc(I)cc1)C(=O)N2`, for which the Activity in experiment [1] is 7%. Also, the result in experiment [2] and in experiment [4] was inactive. For the same compound, in experiment [3], the IC50 is greater than 50 µM.
